Results taken from PMC12236907, “A Natural Depsipeptide Antibiotic that Targets the E site of the Bacterial Ribosome” (Research Square, 2025).
Entries after “also recorded” stand apart in the source; their conditions may differ. Where a SMILES comes first, the peptide text is derived from it. Bridges are numbered along the chain shown (N, C = ends). [ ]: non-standard residue; d: D form. dOrn = NCCC[C@@H](N)C(=O)O

Key:
[1] = test system: E. coli S30 extract transcription-translation system; assay: Inhibition of protein synthesis in E. coli cell-free transcription-translation system; format: biochemical; details: E. coli S30 lysate, pBESTluc plasmid, 0.05 to 100 μM, 1 h at 37°C, luminescence; mean ±SD of three technical replicates
Protocol: The impact of MKM-A and MKM-E on in vitro protein synthesis was evaluated using the E. coli S30 extract transcription-translation system (Promega) following the manufacturer’s protocol. The pBESTluc plasmid DNA was utilized as the template to produce firefly luciferase. MKM analogues were tested across a concentration range of 0.05 to 100 μM. The reactions were incubated for one hour at 37°C. Luminescence was then measured in opaque 96-well plates using a Synergy Microplate Reader (Biotek). The IC50 values, indicating the concentration at which MKMs inhibited protein synthesis by 50%, were determined using GraphPad Prism 10 software.

[2] = target: rabbit reticulocyte lysate; assay: Inhibition of protein synthesis in rabbit reticulocyte lysate programmed with luciferase mRNA; format: biochemical
bacterial ribosome = assay: Toeprinting analysis of MKM-induced ribosome stalling; format: biochemical, E. coli
Protocol: Toeprinting analysis was carried out in the E. coli in vitro transcription-translation system assembled from the purified components (PURExpress, NEB). Toeprinting was carried out using either ^32P-radiolabeled or fluorescently labeled reverse transcription primers, following the procedures described previously[21],[26],[27].
Reactions either contained no antibiotic or were supplemented with 50 μM retapamulin or varying concentrations of MKM. The inhibitors of aminoacyl-tRNA synthetases (mupirocin, Gly-AMS (MedChemExpress: Cat. No.: HY-108940), or Arg-AMS (MedChemExpress, Cat. No.: HY-112862)) were added to the final concentrations of 50 μM to stall translation at downstream “catch codons” (Ile, Gly, or Arg, respectively). The gltX template was prepared by amplifying the gltX gene from E. coli BW25113 genomic DNA using the primers T7_gltX_F and gltX_NV1_R (Supplementary Table 6). The yrbA_wt template and its derivatives containing 3-Ser or 3-Thr codons were generated by four-primer PCRs using the primers T7_IR_AUG_F, yrbA_wt_F / yrbA_TTT_F / yrbA_SSS_F, yrbA_wt_R/yrbA_Ile_catch_R, and posT-NV1_R (Supplementary Table 6).
Fluorescently labeled reactions were carried out on the ermBL toeprint mRNA template. The template was generated by PCR of two overlapping 77-nt- and 78-nt-long primers T7_ermBL_F and ermBL_UGA_R (Supplementary Table 6). Reactions were assembled in a 6 μl volume with 30 ng of the ermBL mRNA template and incubated for 15 min at 37 °C. Reverse transcription was carried out using AMV RT and primer NV*1-Alexa 647 (Supplementary Table 6) for 20 min at 37 °C. Reactions were terminated with 1 μl of 5 M NaOH, neutralized with 0.7 μl of 25% HCl, and nucleotide removal was performed with the QIAquick Nucleotide Removal Kit (Qiagen). The samples were dried under vacuum for 2 hours at 60 °C for subsequent gel electrophoresis. The 6% acrylamide gels were scanned on a Typhoon scanner (GE Healthcare). The sequences of all toeprinting templates used in the study can be found in Supplementary Table 7.

mycobacteria = assay: Antimicrobial activity, mycobacteria; format: cell-based; details: Middlebrook 7H9 + 10% OADC + 0.05% Tween-80
K. pneumoniae C1559 [3] = assay: Time-dependent killing assay, K. pneumoniae; format: cell-based, Klebsiella pneumoniae; details: K. pneumoniae C1559, MHB, 5×MIC (80 μg/ml), 37°C, 0-24 h; mean of three biological replicates
Protocol: E. coli BW25113 and Klebsiella pneumoniae C1559 were grown overnight in 5 ml of cation-adjusted Mueller-Hinton Broth. The cultures were then inoculated into fresh medium to achieve an OD600 of 0.1, corresponding to a concentration of 10^8 CFU/ml. […] Samples were taken at 0 h, 3 h, 6 h, and 24 h post-incubation, plated on MHA plates, and incubated for 20–24 hours at 37°C. Colony counts were used to determine the log reduction in CFU/ml, comparing treated strains to untreated control samples.

K. pneumoniae C1559 [4] = assay: Ex vivo efficacy in human blood; format: cell-based, Klebsiella pneumoniae; details: K. pneumoniae C1559, 10^5 cfu/ml, 5×MIC of MKM, six hours, 37°C; three biological experiments
Protocol: Human blood was procured from BioIVT (New York, USA). […] CFUs were determined by serial dilution and cultivation on agar.

Murine infection model = format: in vivo; details: initial attempts

Structure (SMILES): C[C@@H](O)[C@@H]1NC(=O)[C@@H](CCCNC(=N)N)NC(=O)[C@@H](CCCNC(=N)N)NC(=O)[C@@H](CC(N)=O)NC(=O)[C@@H](NC(=O)[C@@H](Cc2ccccc2)NC(=O)[C@@H](CCCN)NC(=O)[C@H](N)CCCNC(=N)N)[C@@H](C)OC(=O)[C@H](Cc2c[nH]cn2)NC1=O [MKM, manikomycin A] (H-[dR][dOrn][dF]T[dN][dR][dR]TH; ester 4-C)
- IC50 [1]: 0.6 µM
- IC50 ratio rabbit reticulocyte lysate / bacterial system ([2]; IC50 9.2 μM vs 0.6 μM in E. coli system): approximately 15 fold
- inhibition of eukaryotic / mammalian translation (in words) ([2]; rabbit reticulocyte lysate (Fig. 2d)): poor inhibition; also recorded: very weak inhibitor
- IC50 ([2]; rabbit reticulocyte lysate, luciferase mRNA): 9.2 µM
- IC50 ratio to cycloheximide ([2]; rabbit reticulocyte lysate, higher than cycloheximide): 35 fold
- ribosome stalling, ermBL mRNA (bacterial ribosome; E. coli in vitro protein synthesis system, ermBL template): ribosomes stall primarily on the third codon; also recorded: stalled the ribosome on the third codon
- ribosome stalling, gltX template (bacterial ribosome; gltX template, Gly-AMS in all reactions): arrested some ribosomes at the start codon, a notable fraction of them became arrested at several specific sites along the mRNA
- ribosome stalling, yrbA-SSS template (bacterial ribosome; yrbA with three Ser codons after start codon, high concentrations of MKM): no ribosomes pass downstream of the start codon
- ribosome stalling, yrbA-TTT template (bacterial ribosome; yrbA with three Thr codons after start codon): a fraction of ribosomes was able to move through the Thr codons
- growth inhibition (mycobacteria): readily inhibits the growth
- time-kill effect (K. pneumoniae C1559 [3]): bactericidal
- bacterial eradication in human blood (K. pneumoniae C1559 [4]): complete eradication
- protective effect in murine infection model (Murine infection model): did not yield a strong protective effect
